# Like-named read-outs stand apart in the source and are kept apart here.
# What was measured:
# [1] = tested on: Aβ 40 in conditioned medium of cells stably expressing Amyloid Precursor Protein (APP); assay: In vitro BACE cell-based assay (Aβ 40 sandwich ELISA); conditions: Homo sapiens, HEK293
# Outline: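 Aβ40 in conditioned medium measured by pAb40/biotin-6E10 sandwich ELISA with time-resolved europium fluorescence, after 24 h exposure of stable APP cells to compounds (10-point series starting 100 μM or 10 μM; 0.1% DMSO). IC50 fitted from percent of control against concentration.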
# [2] = target: Beta Secretase enzyme (BACE) (Homo sapiens, UniProt P56817); assay: In vitro enzymatic BACE FRET assay; format: biochemical; conditions: read-out: BACE1 FRET assay IC50
# Outline: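 Cleavage of a quenched 50 nM FRET peptide substrate, read as fluorescence (excitation 488 nm, […]) after 1 h and Tris quench to neutrality. Buffer: 0.05 M acetate pH 4.2 with 10% DMSO and 100 uM genapol. Inhibitor dilutions were pre-incubated 1 h with 0.2 nM enzyme.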
# [3] = target: Cathepsin D (Cat D) (Homo sapiens, UniProt P07339); assay: In vitro enzymatic Cathepsin D (Cat D) FRET assay; format: biochemical
# Outline: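 FRET peptide substrate (20 nM) is cleaved by CHO-derived recombinant enzyme (9 nM) for 1 h after a 1 h inhibitor pre-incubation, at pH 3.5 in citrate buffer with 5 mM CHAPS and 10% DMSO. Tris addition ends the reaction; fluorescence measured at 500 nm excitation, 580 nm emission.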
# [4] = text summary referring to data in Table 2
# [5] = average IC50, HEK cell assay, Aβ 40 readout
# [6] = average IC50, in vitro enzymatic BACE FRET assay
# [7] = Cathepsin D FRET assay, read-out: CatD IC50
# Cathepsin D (Cat D), sequence (P07339 65-412, species assumed): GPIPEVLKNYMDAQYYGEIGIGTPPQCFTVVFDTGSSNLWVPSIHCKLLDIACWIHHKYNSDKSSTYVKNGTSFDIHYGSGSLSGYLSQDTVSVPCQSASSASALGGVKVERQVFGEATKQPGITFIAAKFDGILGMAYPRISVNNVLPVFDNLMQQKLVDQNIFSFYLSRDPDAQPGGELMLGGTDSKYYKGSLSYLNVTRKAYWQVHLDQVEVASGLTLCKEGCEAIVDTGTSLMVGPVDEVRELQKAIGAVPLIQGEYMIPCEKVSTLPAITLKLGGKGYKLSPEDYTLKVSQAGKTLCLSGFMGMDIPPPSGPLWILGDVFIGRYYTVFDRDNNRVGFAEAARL
# Beta Secretase enzyme (BACE), sequence (P56817 46-501): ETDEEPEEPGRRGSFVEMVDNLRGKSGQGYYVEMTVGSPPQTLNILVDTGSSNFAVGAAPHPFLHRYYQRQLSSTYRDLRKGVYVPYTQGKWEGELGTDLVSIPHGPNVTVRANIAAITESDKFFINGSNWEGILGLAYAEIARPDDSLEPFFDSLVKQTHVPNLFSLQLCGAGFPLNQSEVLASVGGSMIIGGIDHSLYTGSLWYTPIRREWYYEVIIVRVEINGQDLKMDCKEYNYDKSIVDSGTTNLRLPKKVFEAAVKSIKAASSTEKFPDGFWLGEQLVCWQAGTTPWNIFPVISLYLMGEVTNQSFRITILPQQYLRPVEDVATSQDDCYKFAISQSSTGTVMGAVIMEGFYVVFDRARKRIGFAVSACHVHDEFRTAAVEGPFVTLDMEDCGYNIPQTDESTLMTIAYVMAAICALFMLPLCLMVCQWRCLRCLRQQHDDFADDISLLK
Compound,"IC50 ([1]; HEK cell, average IC50) [µM]",IC50 ([2]; average IC50) [µM],IC50 ([3]; read-out: CatD IC50) [µM],"IC50 [3, 4] [µM]","IC50 ([1]; HEK cells, average IC50) [µM]","IC50 [1, 5] [µM]","IC50 [2, 6] [µM]","IC50 [3, 7] [µM]"
"CC#C[C@H](C)Oc1cnc(C(=O)Nc2ccc3c(c2)[C@@]2(C)N=C(N)C(C)(C)S(=O)(=O)[C@@H]2CCO3)cn1 [Example 15, N-((4aR,11bR)-2-amino-3,3,11b-trimethyl-4,4-dioxido-4a,5,6,11b-tetrahydro-3H-[1]benzoxepino[4,5-b][1,4]thiazin-10-yl)-5-(((1S)-1-methyl-2-butyn-1-yl)oxy)-2-pyrazinecarboxamide]",0.0005,0.003,1970,> 1200,,,,
"CC1(C)C(N)=N[C@]2(C)c3cc(Nc4ncc(F)c5cc(C#N)cnc45)ccc3OCC[C@H]2S1(=O)=O [Example 171, 8-(((4aR,11bR)-2-amino-3,3,11b-trimethyl-4,4-dioxido-4a,5,6,11b-tetrahydro-3H-[1]benzoxepino[4,5-b][1,4]thiazin-10-yl)amino)-5-fluoro-1,7-naphthyridine-3-carbonitrile]",,0.003,> 14.8,,0.01,,,
"COc1cnc(C(=O)Nc2ccc3c(c2)[C@@]2(CF)N=C(N)C(C)(C)S(=O)(=O)[C@@H]2C[C@H](C)O3)cn1 [Example 107, N-((4aR,6S,11bS)-2-amino-11b-(fluoromethyl)-3,3,6-trimethyl-4,4-dioxido-4a,5,6,11b-tetrahydro-3H-[1]benzoxepino[4,5-b][1,4]thiazin-10-yl)-5-methoxy-2-pyrazinecarboxamide]",,,,,,0.11,0.095,> 400
"COCc1ccc(C(=O)Nc2ccc3c(c2)[C@@]2(C)N=C(N)C(C)(C)S(=O)(=O)[C@@H]2CCO3)nc1 [Example 92, N-((4aR,11bR)-2-amino-3,3,11b-trimethyl-4,4-dioxido-4a,5,6,11b-tetrahydro-3H-[1]benzoxepino[4,5-b][1,4]thiazin-10-yl)-5-(methoxymethyl)-2-pyridinecarboxamide]",,,,> 1200,,0.026,0.122,3050
C[C@]12N=C(N)C3(CCC3)S(=O)(=O)[C@@H]1CCOc1ncc(Nc3nccc4cc(Cl)cnc34)cc12 [Example 61],0.125,0.018,680,,,,,
"CC#CC(C)Oc1cnc(C(=O)Nc2ccc3c(c2)[C@@]2(C)N=C(N)C(C)(C)S(=O)(=O)[C@@H]2CCO3)cn1 (mixture of isomers) [Example 14, N-((4aR,11bR)-2-amino-3,3,11b-trimethyl-4,4-dioxido-4a,5,6,11b-tetrahydro-3H-[1]benzoxepino[4,5-b][1,4]thiazin-10-yl)-5-(((1R)-1-methyl-2-butyn-1-yl)oxy)-2-pyrazinecarboxamide,N-((4aR,11bR)-2-amino-3,3,11b-trimethyl-4,4-dioxido-4a,5,6,11b-tetrahydro-3H-[1]benzoxepino[4,5-b][1,4]thiazin-10-yl)-5-(((1S)-1-methyl-2-butyn-1-yl)oxy)-2-pyrazinecarboxamide]",0.001,0.005,689,,,,,
"CC1(C)C(N)=N[C@]2(C)c3cc(Nc4nccc5cc(Cl)cnc45)ccc3CCC[C@H]2S1(=O)=O [Example 46, (4aR,11bR)-N^~10^~-(3-chloro-1,7-naphthyridin-8-yl)-3,3,11b-trimethyl-3,4a,5,6,7,11b-hexahydrobenzo[3,4]cyclohepta[1,2-b][1,4]thiazine-2,10-diamine 4,4-dioxide]",0.102,0.01,85.9,,,,,
"Cc1cc(Cl)cnc1C(=O)Nc1ccc2c(c1)[C@@]1(C)N=C(N)C(C)(C)S(=O)(=O)[C@H]1C[C@@H](C)O2 [Example 181, N-((4aS,6R,11bR)-2-amino-3,3,6,11b-tetramethyl-4,4-dioxido-4a,5,6,11b-tetrahydro-3H-[1]benzoxepino[4,5-b][1,4]thiazin-10-yl)-5-chloro-3-methyl-2-pyridinecarboxamide]",,0.001,124,,0.0008,,,
"C[C@H]1C[C@@H]2[C@](CF)(N=C(N)C(C)(C)S2(=O)=O)c2cc(Nc3nccc4cc(C#N)cnc34)ccc2O1 [Example 110, 8-(((4aR,6S,11bS)-2-amino-11b-(fluoromethyl)-3,3,6-trimethyl-4,4-dioxido-4a,5,6,11b-tetrahydro-3H-[1]benzoxepino[4,5-b][1,4]thiazin-10-yl)amino)-1,7-naphthyridine-3-carbonitrile]",,,,,,0.021,0.013,> 400
"COc1cnc(C(=O)Nc2ccc3c(c2)[C@@]2(C)N=C(N)C(C)(C)S(=O)(=O)[C@@H]2CCC3)c(C)c1 [Example 42, N-((4aR,11bR)-2-amino-3,3,11b-trimethyl-4,4-dioxido-3,4a,5,6,7,11b-hexahydrobenzo[3,4]cyclohepta[1,2-b][1,4]thiazin-10-yl)-5-methoxy-3-methyl-2-pyridinecarboxamide]",0.032,0.067,2980,> 1200,,,,
"Cc1cc(Cl)cnc1C(=O)Nc1ccc2c(c1)[C@@]1(C)N=C(N)C(C)(C)S(=O)(=O)[C@H]1CC(C)(C)O2 [Example 184, N-((4aS,11bR)-2-amino-3,3,6,6,11b-pentamethyl-4,4-dioxido-4a,5,6,11b-tetrahydro-3H-[1]benzoxepino[4,5-b][1,4]thiazin-10-yl)-5-chloro-3-methyl-2-pyridinecarboxamide]",,0.008,403,,0.004,,,
"COc1cnc2c(Nc3ccc4c(c3)[C@@]3(C)N=C(N)C(C)(C)S(=O)(=O)[C@H]3CCO4)nccc2n1 [Example 159, (4aS,11bR)-N^~10^~-(2-methoxypyrido[3,4-b]pyrazin-5-yl)-3,3,11b-trimethyl-4a,5,6,11b-tetrahydro-3H-[1]benzoxepino[4,5-b][1,4]thiazine-2,10-diamine 4,4-dioxide]",,,,,,0.052,0.075,> 400
"Cc1cc(OC(F)F)cnc1C(=O)Nc1ccc2c(c1)[C@@]1(C)N=C(N)C(C)(C)S(=O)(=O)[C@H]1CCO2 [Example 160, N-((4aS,11bR)-2-amino-3,3,11b-trimethyl-4,4-dioxido-4a,5,6,11b-tetrahydro-3H-[1]benzoxepino[4,5-b][1,4]thiazin-10-yl)-5-(difluoromethoxy)-3-methyl-2-pyridinecarboxamide]",,0.01,1170,,0.003,,,
"COc1ccc(C(=O)Nc2ccc3c(c2)[C@@]2(C)N=C(N)C(C)(C)S(=O)(=O)[C@@H]2CCO3)nc1 [Example 185, N-((4aR,11bR)-2-amino-3,3,11b-trimethyl-4,4-dioxido-4a,5,6,11b-tetrahydro-3H-[1]benzoxepino[4,5-b][1,4]thiazin-10-yl)-5-methoxy-2-pyridinecarboxamide]",,0.021,516,,0.013,,,
"CC1(C)C(N)=N[C@]2(C)c3cc(NC(=O)c4cnc(C(F)(F)F)cn4)ccc3OCC[C@H]2S1(=O)=O [Example 164, N-((4aR,11bR)-2-amino-3,3,11b-trimethyl-4,4-dioxido-4a,5,6,11b-tetrahydro-3H-[1]benzoxepino[4,5-b][1,4]thiazin-10-yl)-5-(trifluoromethyl)-2-pyrazinecarboxamide]",,0.028,1600,,0.017,,,
"CC1(C)C(N)=N[C@]2(C)c3cc(NC(=O)c4ccc(Cl)cn4)ccc3CCC[C@@H]2S1(=O)=O [Example 38, N-((4aS,11bR)-2-amino-3,3,11b-trimethyl-4,4-dioxido-3,4a,5,6,7,11b-hexahydrobenzo[3,4]cyclohepta[1,2-b][1,4]thiazin-10-yl)-5-chloro-2-pyridinecarboxamide]",0.15,0.099,> 400,,,,,
"COc1cnc(C(=O)Nc2ccc3c(c2)[C@@]2(C)N=C(N)C(C)(C)S(=O)(=O)[C@@H]2CCS3)cn1 [Example 117, N-((4aR,11bR)-2-amino-3,3,11b-trimethyl-4,4-dioxido-4a,5,6,11b-tetrahydro-3H-[1]benzothiepino[4,5-b][1,4]thiazin-10-yl)-5-methoxy-2-pyrazinecarboxamide]",,,,,,0.003,0.014,168
"Cc1c(C(=O)Nc2ccc3c(c2)[C@@]2(C)N=C(N)C(C)(C)S(=O)(=O)[C@@H]2CCC3)nc2ccc(Cl)cn12 [Example 49, N-((4aR,11bR)-2-amino-3,3,11b-trimethyl-4,4-dioxido-3,4a,5,6,7,11b-hexahydrobenzo[3,4]cyclohepta[1,2-b][1,4]thiazin-10-yl)-6-chloro-3-methylimidazo[1,2-a]pyridine-2-carboxamide]",0.013,0.082,394,,,,,
"CC#CCOc1cnc(C(=O)Nc2ccc3c(c2)[C@@]2(C)N=C(N)C(C)(C)S(=O)(=O)[C@@H]2CCC3)cn1 [Example 50, N-((4aR,11bR)-2-amino-3,3,11b-trimethyl-4,4-dioxido-3,4a,5,6,7,11b-hexahydrobenzo[3,4]cyclohepta[1,2-b][1,4]thiazin-10-yl)-5-(2-butyn-1-yloxy)-2-pyrazinecarboxamide]",0.0002,0.0007,120,,,,,
